Columns and labels:
frog atrial cells = conditions: cited from earlier work
T type calcium channel [1] = experiment: Patch clamp (voltage clamp) of T type calcium channel current in neuroblastoma cells; assay type: cell-based, mouse; conditions: for T type calcium channel current: 1 uM, neuroblastoma cells, FIG. 3
[2] = test system: L and T type calcium channels; conditions: cited from earlier work
SA node = conditions: cited from earlier work
T type calcium channel [3] = experiment: Patch clamp (voltage clamp) of T type calcium channel current in chick dorsal root ganglion neurons; assay type: cell-based, chick (gallus domesticus); conditions: DRG neurons; FIG. 2B
L type calcium channel = experiment: Patch clamp (voltage clamp) of L type calcium channel current in neuroblastoma cells; assay type: cell-based, mouse
neuroblastoma cell = experiment: Current clamp measurement of membrane potential of a neuroblastoma cell; assay type: cell-based, mouse
right atrium = conditions: spontaneously beating right atrium; cited from earlier work

N=C(NCc1ccc(Cl)c(Cl)c1)NC(=O)c1nc(Cl)c(N)nc1N [3,4-dichlorobenzamil]
calcium currents (frog atrial cells): inhibited calcium currents in frog atrial cells

COc1ccc(CNC(=N)NC(=O)c2nc(Cl)c(N)nc2N)cc1OC [Dimethoxybenzamil, 3,4-dimethoxybenzamil]
T type calcium channel current (T type calcium channel [1]): similarly suppresses the T type current

COc1ccc([C@@H]2Sc3ccccc3N(CCN(C)C)C(=O)[C@@H]2OC(C)=O)cc1 [diltiazem]
calcium channel type blocked [2]: block both the L and T type calcium channels

COC(=O)C1=C(C)NC(C)=C(C(=O)OC)C1c1ccccc1[N+](=O)[O-] [Nifidepine, nifidepine]
calcium channel type blocked [2]: blocks only the L type calcium channel

COc1ccc(CCN(C)CCCC(C#N)(c2ccc(OC)c(OC)c2)C(C)C)cc1OC (stereo not shown) [Verapamil, verapamil]
calcium channel type blocked [2]: block both the L and T type calcium channels

N=C(N)NC(=O)c1nc(Cl)c(N)nc1N [amiloride]
T type calcium channel current (transient current) (T type calcium channel [1]; N1E-115 cells, held at -90 mV, depolarization to -20 mV, FIG. 1A, 1C): suppresses this T type channel current | chronotropic action (SA node): negative chronotropic action on the SA node | T type calcium channel current (T type calcium channel [3]): completely suppressed the T type calcium channel current | L type calcium channel current (slow inactivating current) (L type calcium channel; N1E-115 cells, held at -90 mV, depolarization to +20 mV, FIG. 1A, 1D): does not appreciably suppress this L type channel current | neuronal excitability near threshold (neuroblastoma cell; 250 uM, current pulse to threshold and slightly above threshold, FIG. 5): suppress neuronal excitability at membrane potential near the threshold for regenerative depolarization | depolarization well above threshold (neuroblastoma cell; 250 uM, higher degree of stimulation, FIG. 5): does not block the depolarization at higher degree of stimulation | frequency of contractions (right atrium): decreased the frequency of contractions of the spontaneously beating right atrium

N=C(NCc1ccccc1)NC(=O)c1nc(Cl)c(N)nc1N [benzamil]
T type calcium channel current (T type calcium channel [1]): reversably suppresses the bulk of the T type calcium channel current | increase of T channel activity by addition of a benzyl moiety to the guanidine portion of amiloride (T type calcium channel [1]; relative to amiloride): about fifty | L type current (L type calcium channel; 1 uM, neuroblastoma cells, FIG. 3): without suppressing the L type current | regenerative depolarization (neuroblastoma cell; 5 uM, after 1 uM TTX, current pulses of 40 picoamps, FIG. 4): further decreased the regenerative depolarization

Source: US4894376A, “Methods of treating diseases characterized by hyperexcitability of neurons” (Trustees of the University of Pennsylvania, priority 1988, dated 1990)
